Data: patent US12157741B2, “Macrocyclic inhibitors of DYRK1A” (DANA-FARBER CANCER INSTITUTE, INC., priority 2018, dated 2024)

Assays:
Type in all cases: biochemical
DYRK1A = target: T1, DYRK1A (Homo sapiens, UniProt Q13627); test: DYRK1A enzyme assay (Promega ADP-Glo Kinase assay); conditions: for IC50: ADP-Glo, 3 μM ATP, read-out: Enzyme activity against DYRK1A; for potency against DYRK1A (statement on Table 5): statement in words
T1 construct: purchased Thermo Fisher Scientific PR7189B
Method: All DYRK1A kinase inhibition assays were conducted by using Promega™ ADP-Glo™ Kinase assay systems (Cat No. V9102).
For DYRK1A enzyme assay, each inhibitor mixed with 0.2 μg/μL of substrate (MVBP, SignalChem, M42-51N), 3 μM ATP (Promega™, Cat No. V9102), 3 ng of DYRK1A enzyme (Thermo Fisher Scientific, PR7189B) in 384-well plate. All samples were diluted with kinase reaction buffer (40 mM Tris HCl, 10 mM MgCL2, and 0.1 μg/μL BSA (bovine serum albumin), 0.05 mM DTT). After 1 h reaction at 25° C., ADP-Glo™ (Proeg™, V9102) reagent was added and incubated at rt for 40 min. Finally, kinase detection reagent (Promega™, Cat No. V6930) was added and reacted at 25° C. for 10 min. The luminescence signals were detected by using Synergy™ Neo2 microplate reader (BioTek®). Compound inhibition curve was fitted using GraphPad Prism 8.0 software.

CLK1 = target: T2, CLK1 (Homo sapiens, UniProt P49759); test: CLK1 enzyme assay (Promega ADP-Glo Kinase assay); conditions: 10 μM ATP, read-out: Enzyme activity against CLK1
T2 construct: purchased Signalchem C57-11G
Method: All CLK1 kinase inhibition assays were conducted by using Promega™ ADP-Glo™ Kinase assay systems (Cat No. V9102).
For DYRKIA enzyme assay, each inhibitor mixed with 0.1 μg/μL of substrate (MBP, SignalChem, M42-51N), 10 μM ATP (Promega™, Cat No. V9102), 1.6 ng of CLK1 enzyme (Signalchem, C57-11G) in 384-well plate. All samples were diluted with kinase reaction buffer (40 mM Tris HCl, 10 mM MgCL2, and 0.1 μg/μL BSA, 0.05 mM DTT). After 1 h reaction at 25° C., ADP-Glo™ (Promega™, Cat No. V9102) reagent was added and incubated at rt for 40 min. Finally, kinase detection reagent (Promega™, Cat No. V6930) was added and reacted at 25° C. for 10 min. The luminescence signals were detected by using Synergy™ Neo2 microplate reader (BioTek®). Compound inhibition curve was fitted using GraphPad Prism 8.0 software.

LRRK2 (G2019S) = target: T3, LRRK2 (G2019S) (Homo sapiens, UniProt Q5S007, G2019S); test: LRRK2(G2019S) enzyme assay (Promega ADP-Glo Kinase assay); conditions: 25 μM ATP, read-out: Enzyme activity against LRRK2 (G2019S)
T3 construct: purchased SignalChem L10-12GG
Method: All LRRK2 kinase inhibition assays were conducted by using Promega™ ADP-Glo™ Kinase assay systems (Cat No. V4475).
For LRRK G2019S, each compound mixed with 0.2 μg/μL of substrate, 25 μM ATP, 16 ng of LRRK2 G2019S enzyme (SignalChem, L10-12GG). All samples were diluted with kinase reaction buffer (40 mmol/L TrisHCl, 10 mmol/L MgCl2, and 0.1 μg/μL BSA, 0.05 mM DTT). After a 2 h reaction at 25° C., ADP-Glo™ (Promega™, V9102) reagent was added and incubated at rt for 40 min. Finally, kinase detection reagent (Promega™, Cat No. V6930) was added and reacted at 25° C. for 10 min. The luminescence signals were detected by using Synergy™ Neo2 microplate reader (BioTek®). Compound inhibition curve was fitted using GraphPad Prism 8.0 software.

DYRK1B = target: T4, DYRK1B (Homo sapiens, UniProt Q9Y463); test: Invitrogen Zlyte assay, DYRK1B
T4 construct: purchased Invitrogen (assay run by the vendor)
T4 sequence (Q9Y463 whole entry): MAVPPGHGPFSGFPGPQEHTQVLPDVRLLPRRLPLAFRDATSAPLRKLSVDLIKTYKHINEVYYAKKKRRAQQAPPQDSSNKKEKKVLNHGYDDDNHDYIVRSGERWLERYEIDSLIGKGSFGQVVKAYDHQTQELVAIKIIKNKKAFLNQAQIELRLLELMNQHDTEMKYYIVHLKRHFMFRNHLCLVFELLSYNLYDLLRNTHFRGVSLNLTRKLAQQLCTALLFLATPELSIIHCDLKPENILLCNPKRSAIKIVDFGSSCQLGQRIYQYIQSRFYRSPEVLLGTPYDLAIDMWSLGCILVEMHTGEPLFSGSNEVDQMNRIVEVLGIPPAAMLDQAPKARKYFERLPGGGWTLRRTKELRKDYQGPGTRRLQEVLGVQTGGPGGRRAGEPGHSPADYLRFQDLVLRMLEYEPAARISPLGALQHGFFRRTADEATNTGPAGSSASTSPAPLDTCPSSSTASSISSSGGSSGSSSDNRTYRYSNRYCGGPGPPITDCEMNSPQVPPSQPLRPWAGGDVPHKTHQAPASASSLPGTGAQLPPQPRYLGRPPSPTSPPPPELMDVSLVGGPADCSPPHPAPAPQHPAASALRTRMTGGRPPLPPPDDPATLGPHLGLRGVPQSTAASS

T2 sequence (P49759 whole entry): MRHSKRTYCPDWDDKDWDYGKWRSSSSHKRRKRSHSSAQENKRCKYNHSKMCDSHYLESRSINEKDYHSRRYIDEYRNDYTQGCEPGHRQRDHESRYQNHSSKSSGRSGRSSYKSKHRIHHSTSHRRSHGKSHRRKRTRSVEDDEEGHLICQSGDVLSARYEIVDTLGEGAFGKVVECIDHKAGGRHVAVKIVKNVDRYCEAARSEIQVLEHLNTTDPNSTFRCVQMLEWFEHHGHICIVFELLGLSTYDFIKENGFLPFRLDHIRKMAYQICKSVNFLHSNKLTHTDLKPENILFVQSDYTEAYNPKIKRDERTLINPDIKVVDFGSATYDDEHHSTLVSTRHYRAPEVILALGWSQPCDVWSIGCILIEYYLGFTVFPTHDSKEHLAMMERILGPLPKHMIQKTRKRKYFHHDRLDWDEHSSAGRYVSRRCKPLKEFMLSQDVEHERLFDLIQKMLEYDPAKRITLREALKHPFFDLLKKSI
T3 sequence (Q5S007 whole entry G2019S): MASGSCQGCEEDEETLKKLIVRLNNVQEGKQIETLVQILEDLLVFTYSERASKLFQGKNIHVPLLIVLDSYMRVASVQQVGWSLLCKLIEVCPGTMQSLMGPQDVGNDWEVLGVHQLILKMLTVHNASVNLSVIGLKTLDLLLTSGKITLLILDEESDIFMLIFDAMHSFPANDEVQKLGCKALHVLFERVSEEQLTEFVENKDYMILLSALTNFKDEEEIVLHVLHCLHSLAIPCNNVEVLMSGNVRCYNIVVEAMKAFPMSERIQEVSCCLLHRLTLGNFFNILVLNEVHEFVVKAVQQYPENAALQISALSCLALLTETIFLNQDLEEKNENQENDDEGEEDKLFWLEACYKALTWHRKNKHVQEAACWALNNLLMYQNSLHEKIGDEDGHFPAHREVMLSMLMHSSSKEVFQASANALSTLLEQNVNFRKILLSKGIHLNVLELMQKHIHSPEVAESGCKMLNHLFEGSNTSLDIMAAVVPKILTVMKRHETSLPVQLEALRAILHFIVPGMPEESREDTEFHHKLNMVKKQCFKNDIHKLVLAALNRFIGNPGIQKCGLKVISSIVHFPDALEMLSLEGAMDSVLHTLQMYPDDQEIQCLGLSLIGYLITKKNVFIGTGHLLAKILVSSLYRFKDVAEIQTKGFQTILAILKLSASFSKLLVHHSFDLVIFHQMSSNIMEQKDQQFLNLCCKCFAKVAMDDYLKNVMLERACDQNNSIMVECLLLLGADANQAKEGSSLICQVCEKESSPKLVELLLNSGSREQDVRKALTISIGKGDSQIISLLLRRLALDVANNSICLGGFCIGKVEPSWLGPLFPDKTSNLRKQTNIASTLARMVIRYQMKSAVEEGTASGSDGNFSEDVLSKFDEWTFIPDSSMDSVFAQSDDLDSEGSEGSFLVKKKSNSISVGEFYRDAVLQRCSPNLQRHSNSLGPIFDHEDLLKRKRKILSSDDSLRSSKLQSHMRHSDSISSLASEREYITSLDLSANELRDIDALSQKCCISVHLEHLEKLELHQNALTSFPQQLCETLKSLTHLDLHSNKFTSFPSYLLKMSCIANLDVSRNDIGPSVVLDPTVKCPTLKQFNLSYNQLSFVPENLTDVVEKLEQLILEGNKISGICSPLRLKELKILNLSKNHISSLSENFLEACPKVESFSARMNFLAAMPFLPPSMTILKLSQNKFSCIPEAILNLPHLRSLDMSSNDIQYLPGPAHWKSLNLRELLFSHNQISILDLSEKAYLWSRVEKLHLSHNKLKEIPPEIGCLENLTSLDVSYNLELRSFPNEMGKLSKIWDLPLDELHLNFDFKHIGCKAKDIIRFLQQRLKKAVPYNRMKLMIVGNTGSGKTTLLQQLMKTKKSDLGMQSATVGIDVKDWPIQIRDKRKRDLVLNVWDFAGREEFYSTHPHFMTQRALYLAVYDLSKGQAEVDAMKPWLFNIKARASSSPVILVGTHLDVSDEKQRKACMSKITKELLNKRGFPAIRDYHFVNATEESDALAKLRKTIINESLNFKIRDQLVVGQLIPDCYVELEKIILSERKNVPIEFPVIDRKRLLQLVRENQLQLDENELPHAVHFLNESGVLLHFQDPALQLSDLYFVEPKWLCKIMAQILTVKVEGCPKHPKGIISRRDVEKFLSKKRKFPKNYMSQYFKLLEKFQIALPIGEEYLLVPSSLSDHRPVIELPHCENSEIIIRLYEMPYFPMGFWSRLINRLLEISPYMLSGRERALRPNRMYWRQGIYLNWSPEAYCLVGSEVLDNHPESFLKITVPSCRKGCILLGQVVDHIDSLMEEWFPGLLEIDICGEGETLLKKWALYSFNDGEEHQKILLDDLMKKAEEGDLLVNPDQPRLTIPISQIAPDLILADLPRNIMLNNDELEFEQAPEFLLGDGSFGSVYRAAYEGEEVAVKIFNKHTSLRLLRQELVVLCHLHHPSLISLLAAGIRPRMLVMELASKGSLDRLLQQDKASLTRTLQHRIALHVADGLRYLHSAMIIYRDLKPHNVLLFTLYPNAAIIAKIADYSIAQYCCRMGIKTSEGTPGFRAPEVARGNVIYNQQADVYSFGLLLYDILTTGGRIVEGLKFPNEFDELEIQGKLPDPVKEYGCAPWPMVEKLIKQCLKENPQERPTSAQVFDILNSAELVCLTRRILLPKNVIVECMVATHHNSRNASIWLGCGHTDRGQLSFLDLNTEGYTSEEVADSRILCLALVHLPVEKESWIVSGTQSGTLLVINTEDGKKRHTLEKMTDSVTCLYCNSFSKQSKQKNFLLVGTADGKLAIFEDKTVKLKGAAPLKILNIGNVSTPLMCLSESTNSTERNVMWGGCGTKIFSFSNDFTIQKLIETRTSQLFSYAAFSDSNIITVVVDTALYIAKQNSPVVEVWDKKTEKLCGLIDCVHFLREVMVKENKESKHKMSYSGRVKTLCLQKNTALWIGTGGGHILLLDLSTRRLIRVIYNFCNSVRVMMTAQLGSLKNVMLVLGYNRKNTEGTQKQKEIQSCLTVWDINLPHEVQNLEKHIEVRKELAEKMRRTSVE

| IC50 (DYRK1A) [nM] | potency against DYRK1A (statement on Table 5) (DYRK1A) | IC50 (CLK1) [nM] | IC50 (LRRK2 (G2019S)) [nM] | Compound | IC50 (DYRK1B) [nM] |
| --- | --- | --- | --- | --- | --- |
| < 50 | most potent | < 50 | > 100 | CN1Cc2nn(C)cc2-c2cnc3[nH]cc(c3c2)-c2cn(nc2C(F)(F)F)CCCC1=O [Compound 43, (Z)-31,5-dimethyl-13-(trifluoromethyl)-11H,21H,31H-5-aza-2(3,5)-pyrrolo[2,3-b]pyridina-1(4,1),3(4,3)-dipyrazolacyclononaphan-6-one] |  |
|  |  |  |  | COc1c2c(nn1C)CN(C(C)C)C(=O)CCCn1cc(c(C(F)(F)F)n1)-c1c(C)[nH]c3ncc-2cc13 [Compound 51, (Z)-5-isopropyl-35-methoxy-22,31-dimethyl-13-(trifluoromethyl)-11H,21H,31H-5-aza-2(3,5)-pyrrolo[2,3-b]pyridina-1(4,1),3(4,3)-dipyrazolacyclononaphan-6-one] | 533 |
|  |  |  |  | Cc1[nH]c2ncc3cc2c1-c1cn(nc1C(F)(F)F)CCCC(=O)N(C)Cc1nn(C)c(C#N)c1-3 [Compound 52, (Z)-22,31,5-trimethyl-6-oxo-13-(trifluoromethyl)-11H,21H,31H-5-aza-2(3,5)-pyrrolo[2,3-b]pyridina-1(4,1),3(4,3)-dipyrazolacyclononaphane-35-carbonitrile] | 55 |
| < 50 | most potent | < 50 | > 100 | COCCn1cc2c(n1)CN(C)C(=O)CCCn1cc(c(C(F)(F)F)n1)-c1c[nH]c3ncc-2cc13 [Compound 59, (Z)-31-(2-methoxyethyl)-5-methyl-13-(trifluoromethyl)-11H,21H,31H-5-aza-2(3,5)-pyrrolo[2,3-b]pyridina-1(4,1),3(4,3)-dipyrazolacyclononaphan-6-one] |  |
| < 50 | most potent | < 50 | > 100 | CN1Cc2nn(C3CCNCC3)cc2-c2cnc3[nH]cc(c3c2)-c2cn(nc2C(F)(F)F)CCCC1=O [Compound 60, (Z)-5-methyl-31-(piperidin-4-yl)-13-(trifluoromethyl)-11H,21H,31H-5-aza-2(3,5)-pyrrolo[2,3-b]pyridina-1(4,1),3(4,3)-dipyrazolacyclononaphan-6-one] |  |
| < 50 | most potent | > 100 | > 100 | COCCn1nc2c(c1C#N)-c1cnc3[nH]cc(c3c1)-c1cn(nc1C(F)(F)F)CCCC(=O)N(C)C2 [Compound 61, (Z)-31-(2-methoxyethyl)-5-methyl-6-oxo-13-(trifluoromethyl)-11H,21H,31H-5-aza-2(3,5)-pyrrolo[2,3-b]pyridina-1(4,1),3(4,3)-dipyrazolacyclononaphane-35-carbonitrile] |  |
| 50 to 100 |  | < 50 | 50 to 100 | CN1Cc2nn(C)cc2-c2cnc3[nH]cc(c3c2)-c2cn(nc2C(F)(F)F)CCC1=O [Compound 63, (Z)-31,5-dimethyl-13-(trifluoromethyl)-11H,21H,31H-5-aza-2(3,5)-pyrrolo[2,3-b]pyridina-1(4,1),3(4,3)-dipyrazolacyclooctaphan-6-one] |  |
| > 100 |  | > 100 | > 100 | CN1Cc2nn(C3CCNCC3)cc2-c2cnc3[nH]cc(c3c2)-c2cn(nc2C(F)(F)F)CCC1=O [Compound 65, (Z)-5-methyl-31-(piperidin-4-yl)-13-(trifluoromethyl)-11H,21H,31H-5-aza-2(3,5)-pyrrolo[2,3-b]pyridina-1(4,1),3(4,3)-dipyrazolacyclooctaphan-6-one] |  |
| < 50 | most potent | > 100 | > 100 | COCCn1nc2c(c1C#N)-c1cnc3[nH]cc(c3c1)-c1cn(nc1C(F)(F)F)CCC(=O)N(C)C2 [Compound 67, (Z)-31-(2-methoxyethyl)-5-methyl-6-oxo-13-(trifluoromethyl)-11H,21H,31H-5-aza-2(3,5)-pyrrolo[2,3-b]pyridina-1(4,1),3(4,3)-dipyrazolacyclooctaphane-35-carbonitrile] |  |
| > 100 |  | > 100 | > 100 | CN1CCCCn2cc(c(C(F)(F)F)n2)-c2c[nH]c3ncc(cc23)-c2cn(C)nc2C1=O [Compound 75, (Z)-31,5-dimethyl-13-(trifluoromethyl)-11H,21H,31H-5-aza-2(3,5)-pyrrolo[2,3-b]pyridina-1(4,1),3(4,3)-dipyrazolacyclononaphan-4-one] |  |
| > 100 |  | > 100 | > 100 | CN1CCCCn2cc(c(C(F)(F)F)n2)-c2c[nH]c3ncc(cc23)-c2c(nn(C)c2C#N)C1=O [Compound 78, (Z)-31,5-dimethyl-4-oxo-13-(trifluoromethyl)-11H,21H,31H-5-aza-2(3,5)-pyrrolo[2,3-b]pyridina-1(4,1),3(4,3)-dipyrazolacyclononaphane-35-carbonitrile] |  |
